Test results taken from PMC314469, “Protein Interaction Networks by Proteome Peptide Scanning” (PLoS Biology, 2004).

What follows are sequences tested on Myo5 SH3 domain (assay: SPOT analysis of cellulose-bound peptides (WISE), Myo5 SH3 domain (Dataset S4)). Details: SPOT analysis of cellulose-bound 14-mer yeast proteome peptides, Myo5 SH3 domain; normalized value; mean where the peptide was synthesized more than once.
Assay type: binding, Saccharomyces cerevisiae

Row | Sequence | The normalized value in BLU units [BLU]
1 | EEQVKEKPNEPEGK | 134.2
2 | EFDEKLPPKKPAGP | 87.3
3 | EFDMLLLPFIPSID | 249.2
4 | EFSPHSTPVTPRRL | 114.0
5 | EGTTKVDPIIPVPE | 180.1
6 | ELAEFTDPSCPVSE | 188.9
7 | ELEDFAFPDTPTIV | 254.9
8 | ELFTFDMPTDPSSF | 44.9
9 | ELRTLFVPLIPSVT | 293.5
10 | ELYYLNDPKYPGTK | 0.0
11 | ENTPRPNPTQPRKP | 137.3
12 | EPEPLMSPVPPSSA | 215.2
13 | ERDGRGVPLGPRNH | 121.3
14 | ETSLRVLPIAPKIF | 548.0
15 | FANIKREPVHPEIR | 188.2
16 | FARTLKIPNEPSPG | 145.7
17 | FEDHHITPCKPGGQ | 67.9
18 | FEESMNNPLPPLPP | 168.9
19 | FEKRYYVPEDPSQD | 120.8
20 | FEMVFRHPEQPHMI | 309.9

Row | Sequence | The normalized value in BLU units [BLU]
21 | FESFLRPPSTPDLP | 70.2
22 | FFFFHLSPSIPFWF | 6490.2
23 | FFQLMQSPSLPLLM | 829.6
24 | FFYRRDIPDVPITT | 138.0
25 | FHDPKFIPNKPYRQ | 299.7
26 | FLRTMAQPTDPKDQ | 256.6
27 | FLSRYPVPDLPIYL | 1340.1
28 | FLSYMSEPKYPSNE | 141.6
29 | FLTVYILPKNPFRV | 1470.4
30 | FPKKMGPPQWPFST | 279.0
31 | GARFLPAPHRPEKY | 152.9
32 | GEFFHCSPNIPHYA | 271.2
33 | GEYDLIMPIYPYRL | 242.0
34 | GFVFFIAPHLPVDL | 507.5
35 | GLIAHQGPQFPVMG | 238.5
36 | GLIGMNDPPRPNVK | 115.5
37 | GLLLLFVPDSPYDP | 21.6
38 | GLRELFLPGMPGLM | 159.7
39 | GLVLRSTPVIPDMK | 209.2

Same assay, conditions: SPOT analysis of cellulose-bound peptides probed with Myo5 SH3 domain; normalized value

Row | Sequence | The normalized value in BLU units (SPOT analysis, Myo5 SH3) [BLU]
40 | EEMGMEEPQAPEAF | 127.9
41 | EETEMLAPKLPEEN | 81.6
42 | ELLCFLSPGKPSKG | 57.4
43 | ELRDLDIPLVPSPK | 75.3
44 | ELRKLVQPITPIIK | 170.0
45 | EPATLPLPGTPTLA | 61.8
46 | EPIAHLFPPGPKNP | 356.3
47 | EPPSWKPPDLPIRL | 86972.2
48 | EWPGLDPPYIPLDF | 62.7
49 | FASQLRKPRAPMRN | 459.9
50 | FAYSLGLPGAPKIK | 75.8
51 | FENLLMEPNLPFFT | 202.2
52 | FESTLPIPTYPREG | 122.0
53 | FFNRYPNPYSPHVL | 136.7
54 | FFPIMSLPVTPVKS | 122.3
55 | FFTIWFIPLVPVFW | 396.7

Row | Sequence | The normalized value in BLU units (SPOT analysis, Myo5 SH3) [BLU]
56 | FLALFSDPARPFLT | 451.5
57 | FLPVFNLPSNPALF | 154.3
58 | FLYPYDDPNAPIDE | 55.4
59 | FPFYLSFPFCPSFP | 759.9
60 | FWKIHLSPPLPSFK | 965.5
61 | GAGGLGCPALPYLA | 110.6
62 | GAPPLPVPNGPAVG | 222.0
63 | GEIMFPAPPLPIAN | 2774.8
64 | GESHYKPPSTPKIN | 721.8
65 | GETQWRIPYLPLDP | 106.2
66 | GETRWRIPYLPLDP | 118.4
67 | GFDGYMQPIIPGKT | 158.4
68 | GLDALNIPHKPKQL | 167.1
69 | GLHDYTSPASPKQT | 129.7
70 | GLLTYKGPKVPYQK | 150.1
71 | GLRWYRSPIYPYLY | 468.1

Same assay, conditions: SPOT analysis of membrane-bound peptides, Myo5 SH3 domain; normalized value (see methods)

Row | Sequence | The normalized value in BLU units [BLU]
72 | EEQVKCNPNRPIYW | 110.0
73 | EFLIKEDPDLPPQG | 175.4
74 | EFTTREGPHQPIGN | 79.8
75 | EGRCRLFPHCPLGR | 141.3
76 | EHLQKERPKPPNKG | 363.6
77 | EIAKRLQPGSPVLG | 172.5
78 | EIPSKDHPYDPEKD | 51.8
79 | EKEAKSEPQQPEDN | 139.0
80 | EKELKEGPSSPASI | 208.1
81 | EKESRHYPIKPPSP | 179.9
82 | EKNARGIPQAPFIE | 135.6
83 | EKVFRGDPEHPAIS | 90.0
84 | EKYGKDQPESPVPE | 143.3
85 | ELDTKTIPELPFCM | 53.2
86 | ELQIRYKPTPPLKK | 171.0
87 | EVENKLRPDLPVKN | 40.7
88 | EWEEKLTPAGPLCP | 297.2

Row | Sequence | The normalized value in BLU units [BLU]
89 | EYFPREYPKDPVSE | 272.2
90 | EYSPRPSPWLPSKP | 73.7
91 | FENRKHQPFTPKGM | 211.2
92 | FIKNKAKPLIPIEL | 656.3
93 | FLHSKKIPEVPQTD | 287.9
94 | FNGDRLVPTLPTVS | 160.6
95 | FQYTKGRPLAPKGA | 235.2
96 | FRPHRLAPSAPATK | 1405.4
97 | FVSPRRAPKPPSYP | 1581.6
98 | FYDFRSLPKVPTTQ | 336.7
99 | FYKEKAKPLEPILD | 87.7
100 | GENIKITPQKPFWF | 115.0
101 | GFLSKKVPNTPVVV | 71.3
102 | GFQDRSLPHFPKNS | 178.5
103 | GIKVKRIPYSPKSI | 390.6
104 | GLDLKWEPSTPQRK | 164.4
105 | GLNLKWEPSTPQRN | 104.8

Same assay, conditions: SPOT analysis of membrane-synthesized peptides probed with Myo5 SH3 domain; normalized value

Row | Sequence | The normalized value in BLU units (SPOT analysis, Myo5 SH3) [BLU]
106 | EEKVKRTPPLPPVP | 586.7
107 | EELARVTPLTPKEY | 181.5
108 | EFDLKNIPMMPAGE | 106.1
109 | EFIVKTIPVPPRDF | 115.3
110 | EFLRKHSPKAPATG | 412.8
111 | EFPGKKCPRLPHRN | 367.5
112 | EFQSKSSPVPPASE | 78.8
113 | EIKDRDQPAVPPSP | 108.1
114 | EKLIKITPDTPFGF | 205.9
115 | ELDIKQGPVRPFIV | 161.2
116 | ENENKKLPPAPTVF | 67.7
117 | ETGVRYGPEFPLCT | 96.2
118 | ETKKKWQPLPPEPL | 255.8
119 | ETTTRETPLPPIPA | 178.3
120 | EVLRKYIPGEPEFL | 168.7
121 | FASEKGAPFFPNKT | 358.8
122 | FEEDKMTPSTPVRS | 248.5
123 | FEYSKYRPLTPSSE | 143.0
124 | FGSNKNNPVPPELT | 171.5

Row | Sequence | The normalized value in BLU units (SPOT analysis, Myo5 SH3) [BLU]
125 | FGTAKILPEEPSNT | 153.4
126 | FHPEKLTPYTPMTG | 96.5
127 | FKVYRWNPDEPSAK | 99.0
128 | FLLKKMFPAPPLPT | 23725.0
129 | FLQDRVIPIFPHYP | 260.9
130 | FQDYRCSPWCPSRS | 263.5
131 | FQPQRTAPKPPISA | 88304.9
132 | FSKKKEAPEDPKNL | 148.1
133 | FSTKKSKPIRPFVF | 378.5
134 | FVFFKSLPDLPKPQ | 859.9
135 | GDEERFLPNRPHYE | 125.8
136 | GDHPKGPPPPPPPD | 40130.9
137 | GDHPKGPPPPPPPP | 20184.2
138 | GEMVKLTPKNPFYK | 408.3
139 | GHKKKNLPKFPKNK | 789.2
140 | GIMIKAKPSSPYTY | 235.9
141 | GKDHRLAPNGPGMH | 217.5
142 | GKMVKWGPLRPFLS | 644.7
143 | GLMSKLGPNLPASI | 287.3
